From patent publication US20040152903A1, “6-chloro-3-pyridylmethylpropylamine derivatives, preparation process thereof and bactericides” (priority 2004, published 2004)

Experiments:
Septoria tritici = assay: Antifungal activity test (PDA plate, hypha extension inhibition); assay type: cell-based; details: 100 ppm in PDA culture medium
Procedure: (§1) (Antifungal Activity Test against Various Pathogenic Fungi) For each of the compounds I-1 to 27 of the present invention and the comparative compounds (a) to (d), (m-1) and (m-3), 20 mg was weighed and dissolved in 2 ml of dimethylsulfoxide, and a double dilution row in 10 steps was prepared by further using dimethylsulfoxide. A 0.6 ml portion of these solutions was each added to 60 ml of a PDA culture medium (potato-dextrose-agar culture medium) at about 60° C., they were well mixed in a 100 ml Erlenmeyer flask, the solution was poured into a schale and was solidified, the plate culture media containing the compounds according to the present invention with final concentrations of 100, 50.0, 25.0, 12.5, 6.3, 3.2, 1.6, 0.8, 0.4 and 0.2 mg/l were prepared. On the other hand, the specimen bacteria cultured on the plate culture media beforehand was punched by a 4 mm diameter cork borer, and was inoculated on the plate culture media containing the aforementioned chemicals. After the inoculation, the bacteria were cultured at the optimum growth temperature of each bacterium for 1 to 7 days (for this optimum growth temperature, LIST OF CULTURES 1996 Microorganisms 10th edition published by Fermentation Research Institute (Foundation) can be referred to.), and the growth of the bacteria was measured by the diameter of a colony. […] R=100(dc−dt)/dc (Equation 3) [wherein each symbol is shown as follows: R=Hypha extension inhibition rate (%), dc=Diameter of colony on no-treated plate, dt=Diameter of colony on chemical-treated plate.] The results obtained above was evaluated in 5 steps in accordance with the following examination scale. <Growth Inhibition> 5: Hypha extension inhibition rate of 90% or more 4: Hypha extension inhibition rate of from 70% to less than 90% 3: […] 2: […] In addition, the abbreviations in Table 10 are as follows: S.t: Septoria tritici

Botrytis cinerea = assay: as above; assay type: cell-based; details: 1.6 ppm in PDA culture medium
Procedure: as §1, with “B.c: Botrytis cinerea” for “S.t: Septoria tritici”

cucumber powdery mildew = assay: Test of control effect on cucumber powdery mildew; assay type: in vivo; details: wettable powder 100 mg/l, 100 liters/10 a, cucumber (Sagamihanpakufushinari), examined 9th to 14th day after inoculation
Procedure: (Test of Control Effect on Cucumber Powdery Mildew) The wettable powders formulated by using each of the compounds I-1 to 27 according to the present invention and the comparative compounds (a) to (d), (m-1) and (m-3) were each diluted and suspended with water to a predetermined concentration (100 mg/l), the suspension was sprinkled over the first to the second leaf period cucumbers (variety: “[…]”) cultivated by using a square plastic pot (size: 6.4 cm×6.4 cm) in a rate of 100 liters/10 a (ares). After the sprinkled leaves were air-dried, the spores were inoculated over the leaves by sprinkling the same with a brush from an infected leaf, a disease was contracted in a glass house (temperature: 20 to 24° C., relative humidity: 20 to 70 RH). On the 9th to 14th day after the inoculation, the infection degree was examined according to the following scale and the control value of each compound was calculated by the following calculation equation 2: (Examination Scale) [table]

Pyrenophora graminea = assay: Antifungal activity test (PDA plate, hypha extension inhibition); assay type: cell-based; details: 12.5 ppm in PDA culture medium
Procedure: (Antifungal Activity Test against Various Pathogenic Fungi) For each of the compounds I-1 to 27 of the present invention and the comparative compounds (a) to (d), (m-1) and (m-3), 20 mg was weighed and dissolved in 2 ml of dimethylsulfoxide, and a double dilution row in 10 steps was prepared by further using dimethylsulfoxide. A 0.6 ml portion of these solutions was each added to 60 ml of a PDA culture medium (potato-dextrose-agar culture medium) at about 60° C., they were well mixed in a 100 ml Erlenmeyer flask, the solution was poured into a schale and was solidified, the plate culture media containing the compounds according to the present invention with final concentrations of 100, 50.0, 25.0, 12.5, 6.3, 3.2, 1.6, 0.8, 0.4 and 0.2 mg/l were prepared. On the other hand, the specimen bacteria cultured on the plate culture media beforehand was punched by a 4 mm diameter cork borer, and was inoculated on the plate culture media containing the aforementioned chemicals. After the inoculation, the bacteria were cultured at the optimum growth temperature of each bacterium for 1 to 7 days (for this optimum growth temperature, LIST OF CULTURES 1996 Microorganisms 10th edition published by Fermentation Research Institute (Foundation) can be referred to.), and the growth of the bacteria was measured by the diameter of a colony. […]

SMILES	Growth Inhibition S.t (100) (Septoria tritici)	Growth Inhibition B.c (1.6) (Botrytis cinerea)	Control Value (cucumber powdery mildew)	Growth Inhibition P.g (12.5) (Pyrenophora graminea)
CC(Cc1ccc(C(F)(F)F)c(F)c1F)CN(C)Cc1ccc(Cl)nc1 (centres unmarked) [Compound I-10]	4 (Hypha extension inhibition rate of from 70% to less than 90%)	5 (Hypha extension inhibition rate of 90% or more)	100	4 (Hypha extension inhibition rate of from 70% to less than 90%)
CC(Cc1ccc2c(c1)OC(F)(F)O2)CN(C)Cc1ccc(Cl)nc1 (centres unmarked) [Compound I-24]	4 (Hypha extension inhibition rate of from 70% to less than 90%)	4 (Hypha extension inhibition rate of from 70% to less than 90%)	100	5 (Hypha extension inhibition rate of 90% or more)
